Source: the NIST ThermoML archive (doi:10.1021/je060271a)

Conditions: 343.15 K, Liquid, Vibrating tube method

CCCC(=O)OCC(COC(=O)CCC)(COC(=O)CCC)COC(=O)CCC [pentaerythritol tetrabutyrate]
Conditions | mass density [kg/m3]
20390 kPa | 1023.3
20430 kPa | 1023.3
20478 kPa | 1023.4
20526 kPa | 1023.4
20575 kPa | 1023.5
20625 kPa | 1023.5
20668 kPa | 1023.6
20718 kPa | 1023.5
20770 kPa | 1023.6
20824 kPa | 1023.8
20870 kPa | 1023.6
20921 kPa | 1023.6
20960 kPa | 1023.7
20996 kPa | 1023.8
21033 kPa | 1023.8
21064 kPa | 1023.8
21100 kPa | 1023.9
21137 kPa | 1023.9
21173 kPa | 1023.9
21204 kPa | 1023.9
21241 kPa | 1024
21279 kPa | 1024
21316 kPa | 1024.1
21354 kPa | 1024.1
21386 kPa | 1024.2
21424 kPa | 1024.1
21463 kPa | 1024.1
21495 kPa | 1024.1
21534 kPa | 1024.1
21572 kPa | 1024.2
21612 kPa | 1024.2
21645 kPa | 1024.2
21684 kPa | 1024.3
21723 kPa | 1024.3
21763 kPa | 1024.3
21802 kPa | 1024.2
21835 kPa | 1024.3
21876 kPa | 1024.4
21916 kPa | 1024.4
21956 kPa | 1024.4
21990 kPa | 1024.5
22030 kPa | 1024.5
22071 kPa | 1024.4
22112 kPa | 1024.5
22146 kPa | 1024.5
22187 kPa | 1024.5
22220 kPa | 1024.6
22268 kPa | 1024.5
22310 kPa | 1024.7
22344 kPa | 1024.7
22387 kPa | 1024.8
22429 kPa | 1024.7
22472 kPa | 1024.8
22507 kPa | 1024.8
22548 kPa | 1024.8
22591 kPa | 1024.7
22634 kPa | 1024.9
22670 kPa | 1024.9
22714 kPa | 1025
22756 kPa | 1025
22799 kPa | 1024.9
22842 kPa | 1025
22886 kPa | 1024.9
22970 kPa | 1025.2
23014 kPa | 1025.2
23052 kPa | 1025.2
23097 kPa | 1025.2
23142 kPa | 1025.2
23180 kPa | 1025.2
23226 kPa | 1025.3
23270 kPa | 1025.4
23317 kPa | 1025.4
23355 kPa | 1025.3
23400 kPa | 1025.4
23447 kPa | 1025.5
23494 kPa | 1025.6
23535 kPa | 1025.4
23582 kPa | 1025.6
23630 kPa | 1025.6
23676 kPa | 1025.6
23716 kPa | 1025.7
23763 kPa | 1025.7
24094 kPa | 1025.8
24137 kPa | 1026
24186 kPa | 1026
24236 kPa | 1025.8
24278 kPa | 1026.1
24328 kPa | 1026
24379 kPa | 1026
24431 kPa | 1026.1
24484 kPa | 1026.1
24528 kPa | 1026.2
24578 kPa | 1026.2
24621 kPa | 1026.3
24665 kPa | 1026.2
24708 kPa | 1026.3
24745 kPa | 1026.3
24788 kPa | 1026.3
24833 kPa | 1026.2
24870 kPa | 1026.4
24915 kPa | 1026.4
24959 kPa | 1026.4
25004 kPa | 1026.4
25049 kPa | 1026.5
25086 kPa | 1026.6
25132 kPa | 1026.5
25176 kPa | 1026.6
25223 kPa | 1026.7
25270 kPa | 1026.7
25308 kPa | 1026.7
25354 kPa | 1026.8
25401 kPa | 1026.7
25439 kPa | 1026.8
25486 kPa | 1026.9
25532 kPa | 1026.7
25579 kPa | 1026.8
25625 kPa | 1026.9
25665 kPa | 1027
26228 kPa | 1027.4
26277 kPa | 1027.4
26328 kPa | 1027.3
26378 kPa | 1027.4
26422 kPa | 1027.5
26476 kPa | 1027.5
26521 kPa | 1027.6
26574 kPa | 1027.5
26957 kPa | 1027.8
27040 kPa | 1027.8
27084 kPa | 1027.9
27121 kPa | 1027.9
27166 kPa | 1028
27211 kPa | 1027.9
27248 kPa | 1027.9
27293 kPa | 1028
27331 kPa | 1028.1
27416 kPa | 1028.1
27462 kPa | 1028.2
27508 kPa | 1028.2
27548 kPa | 1028.2
27598 kPa | 1028.2
27639 kPa | 1028.3
27688 kPa | 1028.2
27761 kPa | 1028.4
27799 kPa | 1028.6
27832 kPa | 1028.3
27872 kPa | 1028.4
